Data on 31 compounds can be found in US7585874B2, “Aryl-isoxazol-4-yl-imidazo[1,2-a]pyridine derivatives” (Hoffmann-La Roche Inc., priority 2006, dated 2009).

For the assay, the target named is T1, GABA A receptor α5β3γ2 (Homo sapiens, UniProt P18507+P31644).
T1 construct: expressed in transfected cells; host or cells: HEK293 (transiently transfected; membranes)
The assay is described as follows: [3H]flumazenil competition binding, membranes of HEK293 cells expressing human GABA A α5β3γ2. As to conditions: human α5β3γ2 in HEK293 (transiently transfected); 0.5 nM [3H]flumazenil; 1 hour at 4° C.; means of two determinations; read-out: Ki[nM]hα5. On the procedure: The affinity of compounds at GABA A receptor subtypes was measured by competition for [3H]flumazenil (85 Ci/mmol; Roche) binding to HEK293 cells expressing rat (stably transfected) or human (transiently transfected) receptors of composition α1β3γ2, α2β3γ2, α3β3γ2 and α5β3γ2.
Cell pellets were suspended in Krebs-tris buffer (4.8 mM KCl, 1.2 mM CaCl2, 1.2 mM MgCl2, 120 mM NaCl, 15 mM Tris; pH 7.5; binding assay buffer), homogenized by polytron for ca. 20 sec on ice and centrifuged for 60 min at 4° C. (50000 g; Sorvall, rotor: SM24=20000 rpm). The cell pellets were resuspended in Krebs-tris buffer and homogenized by polytron for ca. 15 sec on ice. Protein was measured (Bradford method, Bio-Rad) and aliquots of 1 mL were prepared and stored at −80° C.
Radioligand binding assays were carried out in a volume of […] (96-well plates) which contained […] of cell membranes, [3H]flumazenil at a concentration of 1 nM for α1, α2, α3 subunits and 0.5 nM for α5 subunits and the test compound in the range of […]. Nonspecific binding was defined by 10^−5 M diazepam and typically represented less than 5% of the total binding. Assays were incubated to equilibrium for 1 hour at 4° C. and harvested onto GF/C uni-filters (Packard) by filtration using a Packard harvester and washing with ice-cold wash buffer 50 mM Tris; pH 7.5). After drying, filter-retained radioactivity was detected by liquid scintillation counting. Ki values were calculated using Excel-Fit (Microsoft) and are the means of two determinations.
The term Ki denotes the equilibrium dissociation constant of an inhibitor or competing ligand from its target. For the compound `Cc1ccn2cc(-c3c(-c4ccccc4)noc3C)nc2c1` [Example 8, 7-Methyl-2-(5-methyl-3-phenyl-isoxazol-4-yl)-imidazo[1,2-a]pyridine], the Ki worked out at 81.7 nM.
In the case of “2-(5-Methyl-3-phenyl-isoxazol-4-yl)-imidazo[1,2-a]pyridine-6-carboxylic acid (3-morpholin-4-yl-propyl)-amide [Example 39]”, the Ki was found to be 190 nM.
`Cc1onc(-c2ccccc2)c1-c1cn2ccc(C(=O)NCc3cccnc3)cc2n1` [Example 21, 2-(5-Methyl-3-phenyl-isoxazol-4-yl)-imidazo[1,2-a]pyridine-7-carboxylic acid (pyridin-3-ylmethyl)-amide]: the Ki came to 97 nM.
With `CCc1ccn2cc(-c3c(-c4ccccc4)noc3C)nc2c1` [Example 9, 7-Ethyl-2-(5-methyl-3-phenyl-isoxazol-4-yl)-imidazo[1,2-a]pyridine], the Ki is 101 nM.
Next, `Cc1onc(-c2ccccc2)c1-c1cn2cccc(O)c2n1` [Example 5, 2-(5-Methyl-3-phenyl-isoxazol-4-yl)-imidazo[1,2-a]pyridin-8-ol]: 20.2 nM.
On to `Cc1onc(-c2ccccc2)c1-c1cn2cc(C(=O)NCCN3CCOCC3)ccc2n1` [Example 38, 2-(5-Methyl-3-phenyl-isoxazol-4-yl)-imidazo[1,2-a]pyridine-6-carboxylic acid (2-morpholin-4-yl-ethyl)-amide], for which the Ki came out at 174 nM.
In the case of `Cc1onc(-c2ccccc2)c1-c1cn2cc(NC(=O)Cc3cccnc3)ccc2n1` [Example 56, N-[2-(5-Methyl-3-phenyl-isoxazol-4-yl)-imidazo[1,2-a]pyridin-6-yl]-2-pyridin-3-yl-acetamide], the Ki amounted to 54.3 nM.
Next, `Cc1onc(-c2ccccc2)c1-c1cn2ccc(C(=O)NCc3ccncc3)cc2n1` [Example 22, 2-(5-Methyl-3-phenyl-isoxazol-4-yl)-imidazo[1,2-a]pyridine-7-carboxylic acid (pyridin-4-ylmethyl)-amide]: 199 nM; `Cc1ccc2nc(-c3c(-c4ccccc4)noc3C)cn2c1` [Example 24, 6-Methyl-2-(5-methyl-3-phenyl-isoxazol-4-yl)-imidazo[1,2-a]pyridine]: 33.1 nM; `Cc1onc(-c2ccccc2)c1-c1cn2cc(C(=O)NCc3ccncc3)ccc2n1` [Example 42, 2-(5-Methyl-3-phenyl-isoxazol-4-yl)-imidazo[1,2-a]pyridine-6-carboxylic acid (pyridin-4-ylmethyl)-amide]: 85.5 nM.
Next, `Cc1onc(-c2ccccc2)c1-c1cn2cc(NC(=O)c3cccnc3)ccc2n1` [Example 61, N-[2-(5-Methyl-3-phenyl-isoxazol-4-yl)-imidazo[1,2-a]pyridin-6-yl]-nicotinamide]: 9.4 nM; `Cc1onc(-c2ccccc2)c1-c1cn2cc(F)ccc2n1` [Example 25, 6-Fluoro-2-(5-methyl-3-phenyl-isoxazol-4-yl)-imidazo[1,2-a]pyridine]: 154 nM.
Take `Cc1onc(-c2ccccc2)c1-c1cn2ccc(C(=O)NCC3CC3)cc2n1` [Example 11, 2-(5-Methyl-3-phenyl-isoxazol-4-yl)-imidazo[1,2-a]pyridine-7-carboxylic acid cyclopropylmethyl-amide]: the Ki was 178 nM.
In the case of `Cc1onc(-c2ccccc2)c1-c1cn2cc(NC(=O)C3CCC3)ccc2n1` [Example 58, Cyclobutanecarboxylic acid [2-(5-methyl-3-phenyl-isoxazol-4-yl)-imidazo[1,2-a]pyridin-6-yl]-amide] it was 28.2 nM; in that of `Cc1onc(-c2ccccc2)c1-c1cn2ccc(NC(=O)C3CCC3)cc2n1` [Example 49, Cyclobutanecarboxylic acid [2-(5-methyl-3-phenyl-isoxazol-4-yl)-imidazo[1,2-a]pyridin-7-yl]-amide], 80.5 nM.
Regarding `C#Cc1ccn2cc(-c3c(-c4ccccc4)noc3C)nc2c1` [Example 45, 7-Ethynyl-2-(5-methyl-3-phenyl-isoxazol-4-yl)-imidazo[1,2-a]pyridine], the Ki amounted to 189 nM.
In the case of `Cc1onc(-c2ccccc2)c1-c1cn2cc(I)ccc2n1` [Example 52, 6-Iodo-2-(5-methyl-3-phenyl-isoxazol-4-yl)-imidazo[1,2-a]pyridine] it was 143 nM; in that of `Cc1onc(-c2ccccc2)c1-c1cn2cc(C(=O)NCCO)ccc2n1` [Example 36, 2-(5-Methyl-3-phenyl-isoxazol-4-yl)-imidazo[1,2-a]pyridine-6-carboxylic acid (2-hydroxy-ethyl)-amide], 59.8 nM.
In the case of `Cc1onc(-c2ccccc2)c1-c1cn2cc(-n3ccnc3)ccc2n1` [Example 66, 6-Imidazol-1-yl-2-(5-methyl-3-phenyl-isoxazol-4-yl)-imidazo[1,2-a]pyridine], the Ki was determined as 57.4 nM.
As to `Cc1onc(-c2ccccc2)c1-c1cn2cc(NC(=O)c3ccccc3)ccc2n1` [Example 60, N-[2-(5-Methyl-3-phenyl-isoxazol-4-yl)-imidazo[1,2-a]pyridin-6-yl]-benzamide], the Ki was determined as 30.7 nM.
In the case of `Cc1onc(-c2ccccc2)c1-c1cn2cc(N)ccc2n1` [Example 54, 2-(5-Methyl-3-phenyl-isoxazol-4-yl)-imidazo[1,2-a]pyridin-6-ylamine] it was 88.1 nM; in that of `Cc1onc(-c2ccccc2)c1-c1cn2cc(C(=O)NC3CC3)ccc2n1` [Example 33, 2-(5-Methyl-3-phenyl-isoxazol-4-yl)-imidazo[1,2-a]pyridine-6-carboxylic acid cyclopropylamide], 23.6 nM; in that of `Cc1onc(-c2ccccc2)c1-c1cn2cc(-n3cccn3)ccc2n1` [Example 65, 2-(5-Methyl-3-phenyl-isoxazol-4-yl)-6-pyrazol-1-yl-imidazo[1,2-a]pyridine], 41.1 nM.
For the compound `Cc1onc(-c2ccccc2)c1-c1cn2cc(C(=O)NC3CCCC3)ccc2n1` [Example 35, 2-(5-Methyl-3-phenyl-isoxazol-4-yl)-imidazo[1,2-a]pyridine-6-carboxylic acid cyclopentylamide], the Ki amounted to 15.8 nM.
Next, `Cc1onc(-c2ccccc2)c1-c1cn2cccc(C)c2n1` [Example 2, 8-Methyl-2-(5-methyl-3-phenyl-isoxazol-4-yl)-imidazo[1,2-a]pyridine]: 232 nM; `Cc1onc(-c2ccccc2)c1-c1cn2cc(NC(=O)C3CC3)ccc2n1` [Example 57, Cyclopropanecarboxylic acid [2-(5-methyl-3-phenyl-isoxazol-4-yl)-imidazo[1,2-a]pyridin-6-yl]-amide]: 20.8 nM; `Cc1onc(-c2ccccc2)c1-c1cn2cc(C(=O)NCc3ccco3)ccc2n1` [Example 43, 2-(5-Methyl-3-phenyl-isoxazol-4-yl)-imidazo[1,2-a]pyridine-6-carboxylic acid (furan-2-ylmethyl)-amide]: 36.9 nM.
Next, `Cc1onc(-c2ccccc2)c1-c1cn2cccc(Br)c2n1` [Example 4, 8-Bromo-2-(5-methyl-3-phenyl-isoxazol-4-yl)-imidazo[1,2-a]pyridine]: 146 nM; `CCOC(=O)c1ccc2nc(-c3c(-c4ccccc4)noc3C)cn2c1` [Example 30, 2-(5-Methyl-3-phenyl-isoxazol-4-yl)-imidazo[1,2-a]pyridine-6-carboxylic acid ethyl ester]: 154 nM.
`Cc1onc(-c2ccccc2)c1-c1cn2cc(N3CCCC3=O)ccc2n1` [Example 63, 1-[2-(5-Methyl-3-phenyl-isoxazol-4-yl)-imidazo[1,2-a]pyridin-6-yl]-pyrrolidin-2-one]: the Ki turned out to be 48.7 nM.
Next, `Cc1onc(-c2ccccc2)c1-c1cn2cccc(OCc3ccccc3)c2n1` [Example 6, 8-Benzyloxy-2-(5-methyl-3-phenyl-isoxazol-4-yl)-imidazo[1,2-a]pyridine]: 23 nM.
